Patent publication US7737182B2, “Pharmaceuticals for xerosis” (Taisho Pharmaceutical Co., Ltd., priority 2001, dated 2010)

Legend:
human platelets = assay: Suppression of ADP-induced aggregation of human platelets; type: cell-based; conditions: human platelet-rich plasma, ADP (3 μM), Born method
Experimental: (A) Using the active ingredient of the present invention (compound No. 7) and PGD2 as a control for comparison, prostaglandin D receptor binding selectivity was determined with reference to the platelet aggregation suppressing action as the prostaglandin D receptor agonist action. 1. Human Platelet Aggregation Suppressing Action Suppression of ADP-Induced Aggregation of Human Platelets
The test was performed on purchased platelet-rich plasma (PRP) (6×10^8 platelets/mL) and platelet aggregation was measured based on the Born method (Nature, vol. 194, p. 927, 1962). To 100 μL of PRP, 5 μL of a 1 nM-3 μM test drug solution in ethanol was added and the mixture was incubated at 37° C. for 1 minute with stirring at 1000 rpm. To the resulting mixture, 5 μL of an aggregation inducer [ADP (3 μM)] was added to induce platelet aggregation and a maximum percent aggregation (a maximum change in light transmittance that occurred within 5 minutes after the induction of platelet aggregation) was determined by an aggregometer. The percent suppression of aggregation by each test drug was calculated from the maximum percent aggregation by the test drug as relative to the maximum percent aggregation by ethanol instead of the test drug solution and IC50 values were determined from the constructed dose-response curve.

prostaglandin D receptor = target: T1, prostaglandin D receptor (Homo sapiens, UniProt Q13258); assay: Antagonism by BW A868C of the suppression of ADP-induced human platelet aggregation; type: cell-based; conditions: final concentration 95.7 nmol/L, human PRP, ADP 3 μmol/L
T1 construct: separate the supernatant (PRP, or platelet-rich plasma); endogenous in cells; host or cells: human platelets (platelet-rich plasma from healthy male donors)
T1 sequence (Q13258 1-359): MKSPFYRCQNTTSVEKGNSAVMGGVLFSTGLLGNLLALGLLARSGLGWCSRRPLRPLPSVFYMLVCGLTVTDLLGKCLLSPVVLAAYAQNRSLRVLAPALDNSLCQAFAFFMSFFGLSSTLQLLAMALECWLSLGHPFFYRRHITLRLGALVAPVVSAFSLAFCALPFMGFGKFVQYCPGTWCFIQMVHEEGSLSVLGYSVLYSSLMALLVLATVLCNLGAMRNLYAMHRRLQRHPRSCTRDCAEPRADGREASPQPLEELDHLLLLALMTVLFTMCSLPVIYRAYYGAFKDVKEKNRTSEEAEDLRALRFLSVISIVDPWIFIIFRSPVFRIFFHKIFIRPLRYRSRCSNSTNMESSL
Experimental: The prostaglandin D receptor selective antagonist used in the test was ((+/−)-3-benzyl-5-(6-carboxyhexyl)-1-(2-cyclohexyl-2-hydroxyethylamino)-hydantoin) (hereunder designated BW A868C) (Sigma-Aldrich Japan K.K.)
BW A868C was diluted with ethanol to final concentrations of 0.03 μmol/L, 0.1 μmol/L, 0.3 μmol/L, 1 μmol/L, 3 μmol/L and 10 μmol/L.
Compound No. 7 and PGD2 were diluted with ethanol to 287 nmol/L and 300 nmol/L, respectively, for subsequent use.
Blood was taken from the cubital veins of human healthy males and sampled into a tube containing 3.13% sodium citrate. The blood sample was centrifuged at 1,000 rpm for 10 minutes at 20° C. to separate the supernatant (PRP, or platelet-rich plasma) and the residue was further centrifuged at 3,000 rpm for 10 minutes at 20° C. to separate the supernatant (PPP, or platelet-poor plasma). The platelet count of PRP was appropriately diluted with PPP to 30×10^4 platelets/μL for subsequent use.
Platelet aggregation was measured with a platelet aggregation measuring instrument (PAM-8C; MC MEDICAL Co., LTD.) by the Born method (Nature, vol. 194, p. 927, 1962). A portion (273 μL) of PRP (for the BW A868C groups, 1 μL of BW A868C was added at varying concentrations) was preincubated at 37° C. for 3 minutes with stirring at 1,000 rpm. After the preincubation, 1 μL of ethanol or a test substance (compound No. 7: final concentration at 95.7 nmol/L; PGD2: final concentration at 1000 nmol/L) was added and the mixture was incubated at 37° C. for 3 minutes with stirring at 1000 rpm. After the incubation, 25 μL of ADP (final concentration at 3 μmol/L) was added to induce platelet aggregation and a maximum percent aggregation for 5 minutes was measured.

BALB/c male mice [1] = assay: Mouse skin's barrier function, treatment test, TEWL (Test Example 5); type: in vivo; conditions: barrier destroyed with acetone/diethyl ether; 0.01% in ethanol, 100 μL, once a day for 2 days
Experimental: Six-week-old BALB/c male mice in groups of eight were shaven in a rostral dorsolateral area of 4 cm^2 (2 cm×2 cm) with electric clippers and the shaven area was covered for 60 seconds with an absorbent cotton (2 cm×2 cm) impregnated with a 1:1 liquid mixture of acetone and diethyl ether. This treatment for destroying the skin's barrier function was performed for 3 consecutive days on once-a-day basis. Starting on the day next to completion of the treatment for barrier destruction at day 3, a solvent (ethanol, 100 μL) or a drug dissolved in the solvent (compound No. 7, PGD2, PGF2α, or PGE1, all being at 0.01% in an amount of 100 μL) was applied to the barrier destroyed site for 2 days on once-a-day basis. On the day next to the second application of the solvent or drug, the transepidermal water loss (TEWL) at the same site was measured with Tewameter (TM210 of Courage & Khazawa, Germany) to evaluate the drug's action.

BALB/c male mice [2] = assay: Mouse skin's barrier function, preventive test, TEWL (Test Example 6); type: in vivo; conditions: cohabitation with dermatitic NC/Nga mice; 0.01% in ethanol, 100 μL, once a day for 7 days
Experimental: Six-week-old BALB/c male mice in groups of six were shaven in a rostral dorsolateral area of 4 cm^2 (2 cm×2 cm) with electric clippers and kept in the same cage as NC/Nga mice that had developed dermatitis. From the day next to the start of cohabitation, a solvent (ethanol, 100 μL) or a drug dissolved in the solvent (compound No. 7, PGD2, PGF2α, or PGE1, all being at 0.01% in an amount of 100 μL) was applied to the shaven site for 7 days on once-a-day basis.
On the day next to the seventh application of the solvent or drug, the transepidermal water loss (TEWL) at the same site was measured with Tewameter (TM210 of Courage & Khazawa, Germany) to evaluate the drug's action, with the solvent-applied group being used as the control group.

[3] = test system: Fifty-week-old BALB/c male mice; assay: Aged mouse skin's barrier function, treatment test, TEWL (Test Example 7); type: in vivo; conditions: 50-week-old mice; 0.0001% in ethanol, 200 μL, once a day for 3 days
Experimental: Fifty-week-old BALB/c male mice (eight in each group) were shaven in a rostral dorsolateral area of 4 cm^2 (2 cm×2 cm) with electric clippers. Starting on the next day, a solvent (ethanol, 200 μL) or a drug dissolved in the solvent (compound No. 7 or PGD2, each being at 0.0001% in an amount of 200 μL) was applied to the shaven site for 3 days on once-a-day basis.
On the day next to the third application of the solvent or drug, TEWL at the same site was measured with Tewameter (TM210 of Courage & Khazawa, Germany) to evaluate the drug's action.

## O=C(O)CSCCCC[C@@H]1[C@@H](C#C[C@@H](O)C2CCCCC2)[C@H](O)C[C@H]1Cl [Compound No. 7]
Human platelets
  IC50: 4.27 nM
Prostaglandin D receptor
  platelet aggregation suppressing action compared with control group (ethanol): significant platelet aggregation suppressing action
BALB/c male mice [1]
  transepidermal water loss (TEWL) compared to the solvent-applied control group: significant decrease in TEWL
BALB/c male mice [2]
  transepidermal water loss (TEWL) compared to the control group: significant decrease in TEWL
[3]
  transepidermal water loss (TEWL) compared to the control group: significant decrease in TEWL
